Experimental data from US20260124226A1 (priority 2023, published 2026).
Like-named read-outs stand apart in the source and are kept apart here.

How the values were obtained:
VEEV = assay: microbe, parasite or virus in culture; type: cell-based, Venezuelan equine encephalitis virus; details: Venezuelan equine encephalitis virus
Heartland virus = assay: microbe, parasite or virus in culture; type: cell-based; details: Vero
Marpol virus = assay: organism not typed; type: cell-based
[1] = test system: Severe fever thrombocytopenia syndrome virus; assay: organism not typed; type: cell-based; details: Vero
Pichinde virus = assay: microbe, parasite or virus in culture; type: cell-based; details: Vero
Flu A H5N1 (Low Path) = assay: microbe, parasite or virus in culture; type: cell-based, influenza A virus; details: Influenza A virus, H5N1, MDCK
Flu B = assay: microbe, parasite or virus in culture; type: cell-based, influenza B virus; details: Influenza B virus, MDCK
Poliovirus = assay: microbe, parasite or virus in culture; type: cell-based; details: Vero 76 cells
Murine Norovirus = assay: microbe, parasite or virus in culture; type: cell-based; details: Norwalk virus, RAW264.7
Human Norovirus = assay: microbe, parasite or virus in culture; type: cell-based; details: HG23
A549 = assay: EIDD-2749 cytotoxicity; type: cell-based; details: A549 cells
Vero 76 cells = details: African green monkey
MA-104 cells = details: African green monkey
Plasma stability = details: human plasma, drug 1.00 μM, 37° C.

O=c1ccn([C@@H]2O[C@](F)(CO)[C@@H](O)[C@H]2O)c(=O)[nH]1 [EIDD-2749, 4′-fluorouridine]
EC90 (VEEV; Vero 76): 213 µM | EC50 (VEEV; Vero 76, VEEV strain TC-83, Vero 76 cells): 7.6 µM | EC90 (Heartland virus): 122 µM | EC50 (Marpol virus): 57 µM | EC50 (Marpol virus; Vero C1008): 95 µM | EC90 [1]: > 380 µM | EC90 (Pichinde virus): 0.19 µM | EC50 (Flu A H5N1 (Low Path)): < 0.38 µM | EC50 (Flu B): < 0.38 µM | EC50 (Poliovirus; Enterovirus C, Vero 76, Poliovirus strain Mahoney): 12.2 µM | EC50 (Poliovirus; Poliovirus strain Mahoney): 11.8 µM | EC50 (Murine Norovirus): 2.2 µM | EC90 (Murine Norovirus): 7.2 µM | EC50 (Human Norovirus): 2.7 µM | EC90 (Human Norovirus): 9.3 µM | CC50 (A549): > 400 µM | CC50 (Vero 76 cells): > 380 µM | CC50 (MA-104 cells): > 380 µM | half-life (Plasma stability): 26 min
